Source: US10441663B2, “Methods for treating cancer” (Bicycle Therapeutics Limited, priority 2016, dated 2019)
*1 amine or outer side, *2 acyl side, *3 side chain or, on linkers, in order; H or OH if unused. Where a SMILES comes first, the peptide text is derived from it. Bridges are numbered along the chain shown (N, C = ends). [ ]: non-standard residue; d: D form. The star is where a group is joined. X1 = COc1cc2cc(c1Cl)N(C)C(=O)C[C@H](OC(=O)[C@H](C)N(C)C(=O)CCSSC(C)CCC(=O)*)[C@]1(C)O[C@H]1[C@H](C)[C@@H]1C[C@@](O)(NC(=O)O1)[C@H](OC)/C=C/C=C(\C)C2; 1Nal = N[C@@H](Cc1cccc2ccccc12)C(=O)O; TBMB = c1c(C[*:1])cc(C[*:3])cc1C[*:2]; Tle = CC(C)(C)[C@H](N)C(=O)O; βAla = NCCC(=O)O; Sar = CNCC(=O)O

Key:
[1] = test system: MT1-positive tumor xenograft models (e.g. HT1080 fibrosarcoma; HCC1806 triple negative breast cancer; SNU-16 gastric cancer); test: Selection of MT1-positive tumor xenograft models; assay type: in vivo
Excerpt: Efficacy in this model was reduced in the conjugates containing the least cleavable linkers.

HT1080 cell line = test: In vitro cytotoxicity, ATP endpoint assay after 72 hours incubation; assay type: cell-based; details: HT-1080 cells
Protocol: To evaluate the in vitro cytotoxicity of BT1718 and BT1721 in an HT1080 cell line using an ATP endpoint assay after 72 hours incubation.
Cells were seeded in 96 well plates (75 μl/well, HT1080=7500−15000 cell/well) and incubated overnight at 37° C.+5% CO2.
The day after cell seeding, serial dilutions (1:5) of BT1718 and BT1721 were prepared in DMSO and diluted 1:71 in cell culture media to give 4× final concentrations. Twenty five μl/well was added to the cells (2 μM or 5 μM top final concentration of BT1718 and 2 μM or 5 μM top final concentration of BT1721, <0.6% final DMSO).
Cells were 30-50% confluent upon dosing. Control wells containing 5 μM final concentration of staurosporine (positive control), lysis buffer (1% NP40, 20 mM Tris pH8, 137 mM NaCl, 10% glycerol, 2 mM EDTA, 1 mM Na Orthovanadate, 10 μg/ml leupeptin, 10 μg/ml aprotinin) positive control or media (negative control), were also included. Plates were sealed with gas permeable seals and incubated at 37° C.+5% CO2 for 72 hours. No wash steps were performed.
After a total of 72 hours after dosing, ATPLite reagent (Perkin Elmer) was equilibrated to room temperate and reconstituted in the supplied buffer as per the manufacturer's instructions. One hundred μl 1× detection reagent was added per well. Plates were sealed, protected from light and shaken gently for 20 minutes to ensure complete cell lysis before luminescence was read using a BMG Pherastar FS plate reader. […] Data was analysed using GraphPad Prism. Non-linear regression fit was used to calculate a relative IC50 for each toxic agent: Y=Bottom+(Top−Bottom)/(1+10^((Log Ic50−X)*HillSlope)) where the IC50 is defined as 50% of the total cell kill achieved at the top concentration of toxin.

3LL syngeneic model = test: In vivo efficacy of BT1718 alone or in combination with Anti-PD-1 antibody in 3LL syngeneic model (Example 10); set-up: species or system Mus Musculus
Protocol: The objective of the research was to evaluate the in vivo anti-tumor efficacy of BT1718 alone or in combination with Anti-PD-1 antibody in the treatment of the subcutaneous 3LL syngeneic model in C57BL/6 mice.
The 3LL tumor cells were maintained in vitro as a monolayer culture in medium supplemented with 10% heat inactivated fetal bovine serum at 37° C. in an atmosphere of 5% CO2 in air. The tumor cells were routinely subcultured twice weekly by trypsin-EDTA treatment. The cells growing in an exponential growth phase will be harvested and counted for tumor inoculation.
Each mouse was inoculated subcutaneously at the right flank with 3LL tumor cells (1×106) in 0.1 ml of PBS for tumor development. The animals were randomized and treatment was started when the average tumor volume reaches approximately 105 mm^3 for the efficacy study. The test article administration and the animal numbers in each group were shown in the experimental design table (Table 52).
All the procedures related to animal handling, care and the treatment in the study were performed according to the guidelines of the Association for Assessment and Accreditation of Laboratory Animal Care (AAALAC). At the time of routine monitoring, the animals were daily checked for any effects of tumor growth and treatments on normal behavior such as mobility, food and water consumption (by looking only), body weight gain/loss (body weights were measured every day), eye/hair matting and any other abnormal effect as stated in the protocol. Death and observed clinical signs were recorded on the basis of the numbers of animals within each subset.
The major endpoint was to see if the tumor growth could be delayed or mice could be cured. Tumor size was measured three times weekly in two dimensions using a caliper, and the volume was expressed in mm^3 using the formula: V=0.5 a×b2 where a and b are the long and short diameters of the tumor, respectively. The tumor size was then used for calculations of T/C value. The T/C value (in percent) is an indication of antitumor effectiveness; T and C are the mean volumes of the treated and control groups, respectively, on a given day.
TGI was calculated for each group using the formula: TGI (%)=[1−(Ti−T0)/(Vi−V0)]×100; Ti is the average tumor volume of a treatment group on a given day, T0 is the average tumor volume of the treatment group on the day of treatment start, Vi is the average tumor volume of the vehicle control group on the same day with Ti, and V0 is the average tumor volume of the vehicle group on the day of treatment start.
Summary statistics, including mean and the standard error of the mean (SEM), are provided for the tumor volume of each group at each time point.
Statistical analysis of difference in tumor volume among the groups was conducted on the data obtained at the best therapeutic time point after the final dose.
A one-way ANOVA was performed to compare tumor volume among groups, and when a significant F-statistics (a ratio of treatment variance to the error variance) was obtained, comparisons between groups were carried out with Games-Howell test. All data were analyzed using Prism. P<0.05 was considered to be statistically significant.

[2] = Vehicle, ip, biw + BT1718, 3 mpk, iv, biw, day 14
[3] = Vehicle, ip, biw + BT1718, 10 mpk, iv, biw, day 14

SMILES: COc1cc2cc(c1Cl)N(C)C(=O)C[C@H](OC(=O)[C@H](C)N(C)C(=O)CCSSC(C)CCC(=O)NCCC(=O)N(C)CC(=O)N(C)CC(=O)N(C)CC(=O)N(C)CC(=O)N(C)CC(=O)N(C)CC(=O)N(C)CC(=O)N(C)CC(=O)N(C)CC(=O)N(C)CC(=O)N[C@@H](C)C(=O)N[C@H]1CSCc3cc4cc(c3)CSC[C@H](NC(=O)[C@@H](C)NC(=O)[C@H](Cc3cccc5ccccc35)NC(=O)[C@H](CCC(=O)O)NC(=O)[C@H](CC(N)=O)NC(=O)[C@@H](C)NC1=O)C(=O)N[C@@H](CCC(=O)O)C(=O)N[C@@H](CC(=O)O)C(=O)N[C@@H](Cc1ccccc1)C(=O)N[C@@H](Cc1ccc(O)cc1)C(=O)N[C@@H](CC(=O)O)C(=O)N[C@@H](C(C)(C)C)C(=O)N[C@H](C(N)=O)CSC4)[C@]1(C)O[C@H]1[C@H](C)[C@@H]1C[C@@](O)(NC(=O)O1)[C@H](OC)/C=C/C=C(\C)C2 (stereo partly shown) [BT1718] ({X1-βAla}-[Sar][Sar][Sar][Sar][Sar][Sar][Sar][Sar][Sar][Sar]AC[dA]NE[1Nal][dA]CEDFYD[Tle]C-NH2; linker 12-18-25 via TBMB (inferred))
- tumor response ([1]; 10 mg/kg twice weekly): complete regressions in most models
- minimally effective doses ([1]; weekly or twice weekly): 3 to 10 mg/kg
- IC50 (HT1080 cell line; ATP endpoint): 1 nM
- relative cytotoxic activity versus BT1721 (HT1080 cell line): approximately ten-fold more active
- TGI (3LL syngeneic model; BT1718 3 mg/kg, day 14): 72.9%
- Tumor Volume (3LL syngeneic model; BT1718 3 mg/kg, day 14): 612 mm^3
- TGI (3LL syngeneic model; BT1718 10 mg/kg, day 14): 98.1%
- Tumor Volume (3LL syngeneic model; BT1718 10 mg/kg, day 14): 132 mm^3
- tumor volume trace over time (3LL syngeneic model; Vehicle, ip, biw + BT1718, 3 mpk, iv, biw, day 0): 96 ± 7 mm^3
- tumor volume trace over time (3LL syngeneic model; Vehicle, ip, biw + BT1718, 3 mpk, iv, biw, day 3): 167 ± 29 mm^3
- tumor volume trace over time (3LL syngeneic model; Vehicle, ip, biw + BT1718, 3 mpk, iv, biw, day 7): 320 ± 71 mm^3
- tumor volume trace over time (3LL syngeneic model; Vehicle, ip, biw + BT1718, 3 mpk, iv, biw, day 10): 396 ± 79 mm^3
- T/C (3LL syngeneic model; [2]): 30.6%
- TGI (3LL syngeneic model; [2]): 72.9%
- tumor volume trace over time (3LL syngeneic model; [2]): 612 ± 133 mm^3
- Tumor Volume (3LL syngeneic model; Vehicle, ip, biw + BT1718, 3 mpk, iv, biw, day 14, Mean ± SEM): 612 ± 133 mm^3
- tumor volume trace over time (3LL syngeneic model; Vehicle, ip, biw + BT1718, 3 mpk, iv, biw, day 17): 968 ± 211 mm^3
- tumor volume trace over time (3LL syngeneic model; Vehicle, ip, biw + BT1718, 3 mpk, iv, biw, day 21): 1177 ± 196 mm^3
- tumor volume trace over time (3LL syngeneic model; Vehicle, ip, biw + BT1718, 10 mpk, iv, biw, day 0): 96 ± 6 mm^3
- tumor volume trace over time (3LL syngeneic model; Vehicle, ip, biw + BT1718, 10 mpk, iv, biw, day 3): 134 ± 17 mm^3
- tumor volume trace over time (3LL syngeneic model; Vehicle, ip, biw + BT1718, 10 mpk, iv, biw, day 7): 141 ± 18 mm^3
- tumor volume trace over time (3LL syngeneic model; Vehicle, ip, biw + BT1718, 10 mpk, iv, biw, day 10): 128 ± 16 mm^3
- T/C (3LL syngeneic model; [3]): 6.6%
- TGI (3LL syngeneic model; [3]): 98.1%
- tumor volume trace over time (3LL syngeneic model; [3]): 132 ± 26 mm^3
- Tumor Volume (3LL syngeneic model; Vehicle, ip, biw + BT1718, 10 mpk, iv, biw, day 14, Mean ± SEM): 132 ± 26 mm^3
- tumor volume trace over time (3LL syngeneic model; Vehicle, ip, biw + BT1718, 10 mpk, iv, biw, day 17): 129 ± 33 mm^3
- tumor volume trace over time (3LL syngeneic model; Vehicle, ip, biw + BT1718, 10 mpk, iv, biw, day 21): 104 ± 41 mm^3
